Reference: the supplement of paper PMC10307832

What was measured:
Assay in all cases: relative viability (nuclei count vs DMSO), 5 days (fraction); higher = more cells survive
[1] = compound: O=C(C[C@H]1NCCC[C@@H]1O)Cn1cnc2cc(Br)c(Cl)cc2c1=O (racemic) [Halofuginone] + Cc1cc(Nc2cc(N3CCN(C)CC3)nc(Sc3ccc(NC(=O)C4CC4)cc3)n2)n[nH]1 [Tozasertib] (partner 0.1 µM)
In short: (§1)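 Lung cancer cell lines were pin-tool dosed in 1536-well plates on the day after seeding, with either a lone drug or a fixed anchor-drug dose plus five library-drug doses (not always all listed) in √10 steps. Nuclei were counted on 4× images after 5 days. Relative viability is the ratio of treated-well to vehicle-well nuclei counts, with each value a median of duplicate plates.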

Decitabine + Foretinib = compound: Nc1ncn([C@H]2C[C@H](O)[C@@H](CO)O2)c(=O)n1 [Decitabine] + COc1cc2c(Oc3ccc(NC(=O)C4(C(=O)Nc5ccc(F)cc5)CC4)cc3F)ccnc2cc1OCCCN1CCOCC1 [Foretinib] (partner 0.25 µM)
In short: as §1

Cediranib + Olaparib = compound: COc1cc2c(Oc3ccc4[nH]c(C)cc4c3F)ncnc2cc1OCCCN1CCCC1 [Cediranib] + O=C(c1cc(Cc2n[nH]c(=O)c3ccccc23)ccc1F)N1CCN(C(=O)C2CC2)CC1 [Olaparib] (partner 8 µM)
In short: as §1

Cediranib + Pemetrexed = compound: COc1cc2c(Oc3ccc4[nH]c(C)cc4c3F)ncnc2cc1OCCCN1CCCC1 [Cediranib] + Nc1nc2[nH]cc(CCc3ccc(C(=O)N[C@@H](CCC(=O)O)C(=O)O)cc3)c2c(=O)[nH]1 [Pemetrexed] (partner 0.2 µM)
In short: as §1

Cell Line UMC-11 has a relative viability ([1]; first compound 0.001 µM) of 0.219, a relative viability ([1]; first compound 0.003162 µM) of 0.196 and a relative viability ([1]; first compound 0.01 µM) of 0.189. It also gave a relative viability ([1]; first compound 0.03162 µM) of 0.205, a relative viability ([1]; first compound 0.1 µM) of 0.209 and a relative viability (Decitabine + Foretinib; first compound 0.04 µM) of 0.906. The relative viability (Decitabine + Foretinib; first compound 0.1265 µM) was 0.79, the relative viability (Decitabine + Foretinib; first compound 0.4 µM) was 0.511 and the relative viability (Decitabine + Foretinib; first compound 1.265 µM) was 0.399. For the same cell line, the relative viability (Decitabine + Foretinib; first compound 4 µM) was 0.372, the relative viability (Cediranib + Olaparib; first compound 0.04 µM) was 0.373 and the relative viability (Cediranib + Olaparib; first compound 0.1265 µM) was 0.335. It also gave a relative viability (Cediranib + Olaparib; first compound 0.4 µM) of 0.371, a relative viability (Cediranib + Olaparib; first compound 1.265 µM) of 0.388 and a relative viability (Cediranib + Olaparib; first compound 4 µM) of 0.406. For the same cell line, the relative viability (Cediranib + Pemetrexed; first compound 0.04 µM) was 0.848, the relative viability (Cediranib + Pemetrexed; first compound 0.1265 µM) was 0.752 and the relative viability (Cediranib + Pemetrexed; first compound 0.4 µM) was 0.738. The relative viability (Cediranib + Pemetrexed; first compound 1.265 µM) was 0.824 and the relative viability (Cediranib + Pemetrexed; first compound 4 µM) was 0.764.
